{"source": "patent US8937062B2", "about": "“Compositions and methods for treating, reducing, ameliorating, or preventing infections caused by antibacterial drug-resistant bacteria” (Bausch & Lomb Incorporated, priority 2007, dated 2015)", "key": {"[1]": {"tested_on": "Ofloxacin-resistant Enterobacteriaceae", "assay": "organism not typed", "type": "cell-based", "description": "(§1) As disclosed above, most of these bacteria strains are also relevant to infections of the ear and upper respiratory tract."}, "[2]": {"tested_on": "S. pneumoniae Clinical Isolates", "assay": "In vitro activity against clinical isolates, sixth test, Table 7", "type": "cell-based", "details": "78 isolates"}, "[3]": {"tested_on": "S. aureus Clinical Isolates", "assay": "In vitro activity against clinical isolates, sixth test, Table 7", "type": "cell-based", "details": "Staphylococcus aureus, 49 isolates"}, "GM-resistant S. aureus": {"tested_on": "GM-resistant S. aureus", "assay": "MIC90, agar plate dilution method (NCCLS), Table 2", "type": "cell-based", "details": "Staphylococcus aureus, 10 isolates", "experimental": "(§2) The MIC90 values for this test were determined by the agar plate dilution method according to the National Committee for Clinical Laboratory Standards (“NCCLS”)."}, "[4]": {"tested_on": "GM-resistant P. aeruginosa", "assay": "MIC90, agar plate dilution method (NCCLS), Table 2", "type": "cell-based", "details": "10 isolates; for MIC90: Pseudomonas aeruginosa", "experimental": "as §2"}, "[5]": {"tested_on": "OFLX-resistant Enterobacteriaceae", "assay": "MIC90, agar plate dilution method (NCCLS), Table 2", "type": "cell-based", "details": "for MIC90 Range: OFLX-resistant Enterobacteriaceae, 10 isolates", "experimental": "as §2"}, "[6]": {"tested_on": "PCG-resistant S. pneumoniae", "assay": "MIC90, agar plate dilution method (NCCLS), Table 2", "type": "cell-based", "details": "10 isolates; for MIC90: Streptococcus pneumoniae", "experimental": "as §2"}, "OFLX-resistant S. aureus": {"tested_on": "OFLX-resistant S. aureus", "assay": "MIC90, agar plate dilution method (NCCLS), Table 2", "type": "cell-based", "details": "Staphylococcus aureus, 10 isolates", "experimental": "as §2"}, "[7]": {"tested_on": "APC-resistant Haemophilus influenza.", "assay": "MIC90, agar plate dilution method (NCCLS), Table 2", "type": "cell-based", "details": "for MIC90 Range: APC-resistant Haemophilus influenza., 10 isolates; for MIC90: Haemophilus", "experimental": "as §2"}, "[8]": {"tested_on": "Methicillin-Resistant S. aureus Isolates", "assay": "In vitro anti-bacterial activity, fourth test, Table 5", "type": "cell-based, Staphylococcus aureus", "details": "Staphylococcus aureus, read-out: MIC90", "experimental": "In a fourth test, the anti-bacterial activity of the compound having Formula IV was tested against some methicillin-resistant S. aureus bacteria strains and compared to the anti-bacterial activity of three commercially available antibiotics: nadifloxacin (“NDFX”), ofloxacin (“OFLX”), and sparfloxacin (“SPFX”)."}, "[9]": {"tested_on": "Gentamicin-resistant Staphylococcus aureus", "assay": "In vitro anti-bacterial activity, resistant clinical isolates, fifth test, Table 6", "type": "cell-based", "details": "read-out: MIC90", "description": "as §1"}, "[10]": {"tested_on": "Penicillin-resistant Streptococcus pneumoniae", "assay": "In vitro anti-bacterial activity, resistant clinical isolates, fifth test, Table 6", "type": "cell-based", "details": "read-out: MIC90", "description": "as §1"}, "[11]": {"tested_on": "Ofloxacin-resistant Staphylococcus aureus", "assay": "In vitro anti-bacterial activity, resistant clinical isolates, fifth test, Table 6", "type": "cell-based", "details": "read-out: MIC90", "description": "as §1"}, "[12]": {"tested_on": "Gentamicin-resistant Pseudomonas aeruginosa", "assay": "In vitro anti-bacterial activity, resistant clinical isolates, fifth test, Table 6", "type": "cell-based", "details": "read-out: MIC90", "description": "as §1"}, "[13]": {"tested_on": "methicillin-resistant S. aureus", "assay": "MIC90, Japanese Society of Chemotherapy guidelines (1993), Table 3", "type": "cell-based", "details": "Staphylococcus aureus, read-out: MIC90", "experimental": "(§3) In a second test, compounds having Formulae IV and V, their racemic mixture, and OFLX were tested in vitro against S. aureus strains that are resistant to methicillin or penicillin. The test was conducted according to the guidelines of the Japanese Society of Chemotherapy (1993)."}, "[14]": {"tested_on": "penicillin-resistant S. aureus", "assay": "MIC90, Japanese Society of Chemotherapy guidelines (1993), Table 3", "type": "cell-based", "details": "Staphylococcus aureus, read-out: MIC90", "experimental": "as §3"}}, "note": "Like-named read-outs stand apart in the source and are kept apart here."}
{"smiles": "CC1COc2c(N3CCN(C)CC3)c(F)cc3c(=O)c(C(=O)O)cn1c23", "note": "(stereo not drawn) [OFLX, ofloxacin]", "values": [{"measurement": "MIC90", "setting": "[1]", "value": 64, "unit": "µg/mL"}, {"measurement": "MIC90 Range", "setting": "[2]", "value": "1 to 2", "unit": "µg/mL"}, {"measurement": "MIC90", "setting": "[2]; Streptococcus pneumoniae", "value": 1, "unit": "µg/mL"}, {"measurement": "MIC90", "setting": "[3]", "value": 8, "unit": "µg/mL"}, {"measurement": "MIC90", "setting": "GM-resistant S. aureus; read-out: MIC90 Geometric Mean", "value": 16, "unit": "µg/mL"}, {"measurement": "MIC90", "setting": "GM-resistant S. aureus; read-out: MIC90 Value", "value": "> 128", "unit": "µg/mL"}, {"measurement": "MIC90 Range", "setting": "[4]", "value": "0.5 to 128", "unit": "µg/mL"}, {"measurement": "MIC90", "setting": "[4]; read-out: MIC90 Geometric Mean", "value": 6.5, "unit": "µg/mL"}, {"measurement": "MIC90", "setting": "[4]; read-out: MIC90 Value", "value": 64, "unit": "µg/mL"}, {"measurement": "MIC90 Range", "setting": "[5]", "value": "8 to 64", "unit": "µg/mL"}, {"measurement": "MIC90", "setting": "[5]; read-out: MIC90 Geometric Mean", "value": 21.1, "unit": "µg/mL"}, {"measurement": "MIC90", "setting": "[5]; read-out: MIC90 Value", "value": 64, "unit": "µg/mL"}, {"measurement": "MIC90 Range", "setting": "[6]", "value": "1 to 2", "unit": "µg/mL"}, {"measurement": "MIC90", "setting": "[6]; read-out: MIC90 Geometric Mean", "value": 1.52, "unit": "µg/mL"}, {"measurement": "MIC90", "setting": "[6]; read-out: MIC90 Value", "value": 2, "unit": "µg/mL"}, {"measurement": "MIC90", "setting": "OFLX-resistant S. aureus; read-out: MIC90 Geometric Mean", "value": 104, "unit": "µg/mL"}, {"measurement": "MIC90", "setting": "OFLX-resistant S. aureus; read-out: MIC90 Value", "value": "> 128", "unit": "µg/mL"}, {"measurement": "MIC90 Range", "setting": "[7]", "value": "≦0.06 μg/ml"}, {"measurement": "MIC90", "setting": "[7]; read-out: MIC90 Geometric Mean", "value": "≤ 0.06", "unit": "µg/mL"}, {"measurement": "MIC90", "setting": "[7]; read-out: MIC90 Value", "value": "≤ 0.06", "unit": "µg/mL"}, {"measurement": "MIC90", "setting": "[8]; ATCC33591, Staphylococcus aureus (ATCC 33591)", "value": 0.05, "unit": "µg/mL"}, {"measurement": "MIC90", "setting": "[8]; ATCC33592, Staphylococcus aureus (ATCC 33592)", "value": 0.39, "unit": "µg/mL"}, {"measurement": "MIC90", "setting": "[8]; ATCC33593, Staphylococcus aureus (ATCC 33593)", "value": 0.2, "unit": "µg/mL"}, {"measurement": "MIC90", "setting": "[8]; Staphylococcus aureus (No. 395)", "value": 0.2, "unit": "µg/mL"}, {"measurement": "MIC90", "setting": "[8]; Staphylococcus aureus (No. 415)", "value": 0.78, "unit": "µg/mL"}, {"measurement": "MIC90", "setting": "[8]; Staphylococcus aureus (No. 419)", "value": 3.13, "unit": "µg/mL"}, {"measurement": "MIC90", "setting": "[8]; Staphylococcus aureus (No. 420)", "value": 1.56, "unit": "µg/mL"}, {"measurement": "MIC90", "setting": "[8]; Staphylococcus aureus (No. 421)", "value": 1.56, "unit": "µg/mL"}, {"measurement": "MIC90", "setting": "[9]", "value": 128, "unit": "µg/mL"}, {"measurement": "MIC90", "setting": "[10]", "value": 2, "unit": "µg/mL"}, {"measurement": "MIC90", "setting": "[11]", "value": "> 128", "unit": "µg/mL"}, {"measurement": "MIC90", "setting": "[12]", "value": 64, "unit": "µg/mL"}, {"measurement": "MIC90", "setting": "[13]; ATCC33591, S. aureus (ATCC 33591)", "value": 0.39, "unit": "µg/mL"}, {"measurement": "MIC90", "setting": "[13]; ATCC33592, S. aureus (ATCC 33592)", "value": 0.2, "unit": "µg/mL"}, {"measurement": "MIC90", "setting": "[13]; ATCC33593, S. aureus (ATCC 33593)", "value": 0.2, "unit": "µg/mL"}, {"measurement": "MIC90", "setting": "[13]; S. aureus (No. 395)", "value": 0.39, "unit": "µg/mL"}, {"measurement": "MIC90", "setting": "[13]; S. aureus (No. 415)", "value": 0.2, "unit": "µg/mL"}, {"measurement": "MIC90", "setting": "[13]; S. aureus (No. 419)", "value": 0.39, "unit": "µg/mL"}, {"measurement": "MIC90", "setting": "[13]; S. aureus (No. 420)", "value": 0.2, "unit": "µg/mL"}, {"measurement": "MIC90", "setting": "[13]; S. aureus (No. 421)", "value": 0.39, "unit": "µg/mL"}, {"measurement": "MIC90", "setting": "[14]; ATCC11632, S. aureus (ATCC 11632)", "value": 0.2, "unit": "µg/mL"}, {"measurement": "MIC90", "setting": "[14]; ATCC13301, S. aureus (ATCC 13301)", "value": 0.2, "unit": "µg/mL"}]}
{"smiles": "CCn1cc(C(=O)O)c(=O)c2cc(F)c(N3CCNCC3)cc21", "note": "[NFLX, norfloxacin]", "values": [{"measurement": "MIC90", "setting": "[1]", "value": 128, "unit": "µg/mL"}, {"measurement": "MIC90", "setting": "GM-resistant S. aureus; read-out: MIC90 Geometric Mean", "value": 48.5, "unit": "µg/mL"}, {"measurement": "MIC90", "setting": "GM-resistant S. aureus; read-out: MIC90 Value", "value": "> 128", "unit": "µg/mL"}, {"measurement": "MIC90 Range", "setting": "[4]", "value": "0.5 to 128", "unit": "µg/mL"}, {"measurement": "MIC90", "setting": "[4]; read-out: MIC90 Geometric Mean", "value": 5.66, "unit": "µg/mL"}, {"measurement": "MIC90", "setting": "[4]; read-out: MIC90 Value", "value": 128, "unit": "µg/mL"}, {"measurement": "MIC90 Range", "setting": "[5]", "value": "16 to 128", "unit": "µg/mL"}, {"measurement": "MIC90", "setting": "[5]; read-out: MIC90 Geometric Mean", "value": 48.5, "unit": "µg/mL"}, {"measurement": "MIC90", "setting": "[5]; read-out: MIC90 Value", "value": 128, "unit": "µg/mL"}, {"measurement": "MIC90 Range", "setting": "[6]", "value": "2 to 8", "unit": "µg/mL"}, {"measurement": "MIC90", "setting": "[6]; read-out: MIC90 Geometric Mean", "value": 4.29, "unit": "µg/mL"}, {"measurement": "MIC90", "setting": "[6]; read-out: MIC90 Value", "value": 8, "unit": "µg/mL"}, {"measurement": "MIC90", "setting": "OFLX-resistant S. aureus; read-out: MIC90 Geometric Mean", "value": 194, "unit": "µg/mL"}, {"measurement": "MIC90", "setting": "OFLX-resistant S. aureus; read-out: MIC90 Value", "value": "> 128", "unit": "µg/mL"}, {"measurement": "MIC90 Range", "setting": "[7]", "value": "≦0.06 μg/ml"}, {"measurement": "MIC90", "setting": "[7]; read-out: MIC90 Geometric Mean", "value": "≤ 0.06", "unit": "µg/mL"}, {"measurement": "MIC90", "setting": "[7]; read-out: MIC90 Value", "value": "≤ 0.06", "unit": "µg/mL"}, {"measurement": "MIC90", "setting": "[9]", "value": 128, "unit": "µg/mL"}, {"measurement": "MIC90", "setting": "[10]", "value": 8, "unit": "µg/mL"}, {"measurement": "MIC90", "setting": "[11]", "value": "> 128", "unit": "µg/mL"}, {"measurement": "MIC90", "setting": "[12]", "value": 128, "unit": "µg/mL"}]}
